{"source": "patent US11304966B2", "about": "“Composition comprising HMOs for preventing or reducing nociception” (Glycom A/S, priority 2017, dated 2022)", "biological_target": "T1, GPR35 receptor (Homo sapiens, UniProt Q9HC97)", "T1 construct": "expressed in transfected cells", "T1 sequence (Q9HC97 whole entry)": "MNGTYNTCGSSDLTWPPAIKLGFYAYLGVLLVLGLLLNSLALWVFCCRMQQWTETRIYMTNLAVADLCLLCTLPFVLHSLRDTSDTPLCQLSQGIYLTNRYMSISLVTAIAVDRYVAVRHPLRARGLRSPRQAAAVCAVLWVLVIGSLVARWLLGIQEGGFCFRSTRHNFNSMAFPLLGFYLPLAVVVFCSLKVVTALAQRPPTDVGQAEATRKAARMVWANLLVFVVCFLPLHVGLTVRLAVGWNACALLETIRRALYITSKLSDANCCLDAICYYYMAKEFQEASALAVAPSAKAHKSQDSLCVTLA", "T1 sequence (P32121 whole entry partner)": "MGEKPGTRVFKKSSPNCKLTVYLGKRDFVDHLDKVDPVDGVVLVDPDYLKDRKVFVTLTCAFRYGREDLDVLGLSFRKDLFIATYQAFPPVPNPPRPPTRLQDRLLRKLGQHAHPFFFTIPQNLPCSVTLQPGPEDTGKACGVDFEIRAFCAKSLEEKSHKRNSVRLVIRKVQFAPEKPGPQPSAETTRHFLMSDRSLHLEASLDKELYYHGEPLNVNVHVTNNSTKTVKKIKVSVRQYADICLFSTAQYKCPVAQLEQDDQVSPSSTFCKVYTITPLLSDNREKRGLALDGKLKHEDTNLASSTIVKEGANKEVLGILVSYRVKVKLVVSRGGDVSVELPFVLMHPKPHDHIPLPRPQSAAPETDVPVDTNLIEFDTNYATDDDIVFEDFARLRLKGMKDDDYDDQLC", "experiment": "PathHunter β-Arrestin assay, activation of GPR35 expressed in cultured cells", "type": "cell-based", "details": "for activation of GPR35: up to 10 mM; for pEC50: highest concentration tested 10 mM, duplicate", "from_the_text": "Six human milk oligosaccharides (LNnT, LNT, 2′-FL, DFL, 6′-SL and 3′-SL) are screened for their ability to activate the GPR35 receptor in the PathHunter β-Arresin assay. This assay monitors the activation of GPR35 expressed in cultured cells, using Enzyme Fragment Complementation with β-galactosidase (β-Gal) as the functional reporter. […] EA is fused to β-Arrestin and PK is fused to GPR35. When the GPR35 is activated and β-Arrestin is recruited to the receptor, PK and EA complementation occurs, restoring β-Gal activity, which is measured using chemiluminescent Detection Reagents.\nThe GPR35 cell line is expanded from frozen stocks and cultured according to standard procedures. Cells are seeded in a total volume of 20 μl into white walled, 384-well microplates and incubated at 37° C. for the appropriate time prior to testing. All testing is done in duplicate. The HMO samples are held in the form of concentrated stocks in Phosphate Buffered saline (PBS). A 5× dilution compound working intermediate is prepared in PBS. Five μl of the sample is added to the cells and incubated at room temperature for 3 to 5 hours. The assay signal is generated through a single addition of 12.5 μl (50 v/v %) of PathHunter Detection reagent cocktail, followed by one-hour incubation at room temperature. Microplates are read following signal generation with a PerkinElmer Envision™ instrument for chemiluminescent signal detection. Zaprinast (which is known to be an activator of GPR35) is used as positive control. Dose-response is generated by iterative 3× dilutions of the highest concentration tested (10 mM).", "note": "pEC50: −log10 of the molar value.", "data": [{"smiles": "CC(=O)N[C@H]1[C@H](O[C@H]2[C@@H](O)[C@@H](CO)O[C@@H](O[C@H]3[C@H](O)[C@@H](O)C(O)O[C@@H]3CO)[C@@H]2O)O[C@H](CO)[C@@H](O[C@@H]2O[C@H](CO)[C@H](O)[C@H](O)[C@H]2O)[C@@H]1O", "note": "(mixture of isomers) [LNnT, lacto-N-neotetraose]", "values": [{"measurement": "activation of GPR35", "result": "No activation"}]}, {"smiles": "C[C@@H]1O[C@@H](O[C@H]2[C@H](O[C@H]3[C@H](O[C@@H]4O[C@@H](C)[C@@H](O)[C@@H](O)[C@@H]4O)[C@@H](O)C(O)O[C@@H]3CO)O[C@H](CO)[C@H](O)[C@@H]2O)[C@@H](O)[C@H](O)[C@@H]1O", "note": "(some centres unmarked) [DFL, difucosyllactose]", "values": [{"measurement": "activation of GPR35", "result": "No activation"}]}, {"smiles": "CC(=O)N[C@H]1[C@H]([C@H](O)[C@H](O)CO)O[C@@](O[C@H]2[C@@H](O)[C@@H](CO)O[C@@H](O[C@H]3[C@H](O)[C@@H](O)C(O)O[C@@H]3CO)[C@@H]2O)(C(=O)O)C[C@@H]1O", "note": "(some centres unmarked) [3′-SL, 3′-sialyllactose]", "values": [{"measurement": "activation of GPR35", "result": "No activation"}]}, {"smiles": "CC(=O)N[C@H]1[C@H]([C@H](O)[C@H](O)CO)O[C@@](OC[C@H]2O[C@@H](O[C@H]3[C@H](O)[C@@H](O)[C@H](O)O[C@@H]3CO)[C@H](O)[C@@H](O)[C@H]2O)(C(=O)O)C[C@@H]1O", "note": "[6′-SL, 6′-sialyllactose]", "values": [{"measurement": "pEC50", "result": 2.19}]}, {"smiles": "CC(=O)N[C@H]1[C@H](O[C@H]2[C@@H](O)[C@@H](CO)O[C@@H](O[C@H]3[C@H](O)[C@@H](O)C(O)O[C@@H]3CO)[C@@H]2O)O[C@H](CO)[C@@H](O)[C@@H]1O[C@@H]1O[C@H](CO)[C@H](O)[C@H](O)[C@H]1O", "note": "(some centres unmarked) [LNT, lacto-N-tetraose]", "values": [{"measurement": "pEC50", "result": 2.35}]}]}
